Source: ChEMBL document CHEMBL1201862, “PubChem BioAssay data set” (2004)
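Assay format: 96-well plates, 48-hour exposure. Abbreviation: GI50, concentration required for 50% inhibition of growth.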 The source made the active and inactive calls. Cut-off read from the data, not from the text of the source: active = GI50 up to about 1.1 µM and inactive = higher.

Key:
Assay in all cases: inhibition of tumour cell growth, NCI panel, 48 h
[1] = system: 786-0
[2] = system: A498
[3] = system: A549
[4] = system: ACHN
[5] = system: BT-549
[6] = system: CAKI-1
[7] = system: CCRF-CEM
[8] = system: COLO 205
[9] = system: DU-145
[10] = system: EKVX
[11] = system: HCC 2998
[12] = system: HCT-116
[13] = system: HCT-15
[14] = system: HL-60
[15] = system: HOP-62
[16] = system: HOP-92
[17] = system: HT-29
[18] = system: Hs-578T
[19] = system: IGROV-1
[20] = system: K562
[21] = system: KM12
[22] = system: LOX IMVI
[23] = system: M14
[24] = system: MCF7
[25] = system: MDA-MB-231
[26] = system: MDA-MB-435
[27] = system: MOLT-4
[28] = system: Malme-3M
[29] = system: NCI-H226
[30] = system: NCI-H23
[31] = system: NCI-H460
[32] = system: NCI-H522
[33] = system: NCI/ADR-RES
[34] = system: OVCAR-3
[35] = system: OVCAR-4
[36] = system: OVCAR-5
[37] = system: OVCAR-8
[38] = system: PC-3
[39] = system: RPMI-8226
[40] = system: RXF 393
[41] = system: SF-268
[42] = system: SF-295
[43] = system: SF-539
[44] = system: SK-MEL-28
[45] = system: SK-MEL-2
[46] = system: SK-MEL-5
[47] = system: SK-OV-3
[48] = system: SN12C
[49] = system: SNB-19
[50] = system: SNB-75
[51] = system: SR
[52] = system: SW-620
[53] = system: T47D
[54] = system: TK-10
[55] = system: U-251
[56] = system: UACC-257
[57] = system: UACC-62
[58] = system: UO-31

**Q.** With `O=[N+]([O-])c1ccc(C2NC(=S)NC3c4cc([N+](=O)[O-])ccc4CCCC23)cc1` (stereo not drawn) as the compound, how does the GI50 [1] read?
**A.** The GI50 was 97.1 µM (inactive).

**Q.** What about the GI50 [2] of the same compound?
**A.** The GI50 was 76.7 µM (inactive).

**Q.** And the GI50 [3]?
**A.** The GI50 was 78.3 µM (inactive).

**Q.** What about the GI50 [4] of the same compound?
**A.** The GI50 was 63.4 µM (inactive).

**Q.** And the GI50 [5]?
**A.** The GI50 was 38.8 µM (inactive).

**Q.** And the GI50 [6]?
**A.** The GI50 was > 100 µM (inactive).

**Q.** What about the GI50 [7] of the same compound?
**A.** The GI50 was 39.4 µM (inactive).

**Q.** And the GI50 [8]?
**A.** Its GI50 is > 100 µM (inactive).

**Q.** And the GI50 [9]?
**A.** Its GI50 is 33 µM (inactive).

**Q.** What about the GI50 [10] of the same compound?
**A.** The GI50 was 77.3 µM (inactive).

**Q.** What about the GI50 [11] of the same compound?
**A.** Its GI50 is > 100 µM (inactive).

**Q.** And the GI50 [12]?
**A.** The GI50 was > 100 µM (inactive).

**Q.** And the GI50 [13]?
**A.** Its GI50 is > 100 µM.

**Q.** And the GI50 [14]?
**A.** The GI50 was > 100 µM (inactive).

**Q.** And the GI50 [15]?
**A.** Its GI50 is 57.4 µM (inactive).

**Q.** What about the GI50 [16] of the same compound?
**A.** Its GI50 is 15.4 µM (inactive).

**Q.** What about the GI50 [17] of the same compound?
**A.** Its GI50 is > 100 µM (inactive).

**Q.** And the GI50 [18]?
**A.** The GI50 was > 100 µM (inactive).

**Q.** What about the GI50 [19] of the same compound?
**A.** Its GI50 is 36.9 µM (inactive).

**Q.** What about the GI50 [20] of the same compound?
**A.** The GI50 was > 100 µM (inactive).

**Q.** What about the GI50 [21] of the same compound?
**A.** Its GI50 is > 100 µM (inactive).

**Q.** And the GI50 [22]?
**A.** The GI50 was > 100 µM (inactive).

**Q.** What about the GI50 [23] of the same compound?
**A.** The GI50 was > 100 µM (inactive).

**Q.** And the GI50 [24]?
**A.** The GI50 was 41.8 µM (inactive).

**Q.** What about the GI50 [25] of the same compound?
**A.** The GI50 was > 100 µM (inactive).

**Q.** What about the GI50 [26] of the same compound?
**A.** Its GI50 is > 100 µM (inactive).

**Q.** What about the GI50 [27] of the same compound?
**A.** The GI50 was > 100 µM (inactive).

**Q.** What about the GI50 [28] of the same compound?
**A.** Its GI50 is > 100 µM (inactive).

**Q.** What about the GI50 [29] of the same compound?
**A.** Its GI50 is 53.5 µM (inactive).

**Q.** What about the GI50 [30] of the same compound?
**A.** Its GI50 is 67.3 µM (inactive).

**Q.** What about the GI50 [31] of the same compound?
**A.** Its GI50 is > 100 µM (inactive).

**Q.** And the GI50 [32]?
**A.** Its GI50 is 69.7 µM (inactive).

**Q.** What about the GI50 [33] of the same compound?
**A.** The GI50 was > 100 µM (inactive).

**Q.** And the GI50 [34]?
**A.** The GI50 was 40.7 µM (inactive).

**Q.** What about the GI50 [35] of the same compound?
**A.** The GI50 was 56.4 µM (inactive).

**Q.** What about the GI50 [36] of the same compound?
**A.** The GI50 was > 100 µM (inactive).

**Q.** What about the GI50 [37] of the same compound?
**A.** Its GI50 is 52.2 µM (inactive).

**Q.** And the GI50 [38]?
**A.** The GI50 was 55.7 µM (inactive).

**Q.** And the GI50 [39]?
**A.** Its GI50 is 58.9 µM (inactive).

**Q.** And the GI50 [40]?
**A.** Its GI50 is 18.2 µM (inactive).

**Q.** What about the GI50 [41] of the same compound?
**A.** The GI50 was 46.8 µM (inactive).

**Q.** And the GI50 [42]?
**A.** The GI50 was 46.6 µM (inactive).

**Q.** And the GI50 [43]?
**A.** Its GI50 is 39.1 µM (inactive).

**Q.** And the GI50 [44]?
**A.** The GI50 was > 100 µM (inactive).

**Q.** And the GI50 [45]?
**A.** Its GI50 is > 100 µM (inactive).

**Q.** What about the GI50 [46] of the same compound?
**A.** Its GI50 is > 100 µM (inactive).

**Q.** And the GI50 [47]?
**A.** Its GI50 is > 100 µM (inactive).

**Q.** What about the GI50 [48] of the same compound?
**A.** Its GI50 is > 100 µM (inactive).

**Q.** And the GI50 [49]?
**A.** Its GI50 is 40.9 µM (inactive).

**Q.** And the GI50 [50]?
**A.** Its GI50 is 16.6 µM (inactive).

**Q.** And the GI50 [51]?
**A.** Its GI50 is > 100 µM (inactive).

**Q.** And the GI50 [52]?
**A.** Its GI50 is > 100 µM (inactive).

**Q.** What about the GI50 [53] of the same compound?
**A.** Its GI50 is 35.6 µM (inactive).

**Q.** And the GI50 [54]?
**A.** The GI50 was > 100 µM (inactive).

**Q.** And the GI50 [55]?
**A.** Its GI50 is 44.9 µM (inactive).

**Q.** And the GI50 [56]?
**A.** Its GI50 is > 100 µM (inactive).

**Q.** And the GI50 [57]?
**A.** Its GI50 is 31.2 µM (inactive).

**Q.** What about the GI50 [58] of the same compound?
**A.** Its GI50 is 63.8 µM (inactive).
